Where “and” joins values, the source holds several entries; their conditions need not be identical. Identical values can stand only once.
What was measured:
IGF-1 [1] = assay: One-year dog safety study: IGF-1 plasma levels; type: in vivo, Beagle dogs; conditions: dogs, following treatment, sustained over time to Day 351
Protocol: (§1) This study evaluated the safety of capromorelin in dogs. Thirty-two Beagle dogs were randomly assigned to four groups (n=4/sex/group) and received 0 mg/kg, 0.39 mg/kg, 9.2 mg/kg, or 52.4 mg/kg capromorelin (with the dose calculated per the tartrate salt) once daily by oral gavage for 12 consecutive months. Safety parameters were evaluated including clinical signs, food consumption, bodyweight, clinical pathology, urinalysis, ophthalmology, electrocardiogram and vital signs. Capromorelin, GH and IGF-1 were measured in plasma samples collected at various time points during the study. At the end of the dosing period, dogs were humanely euthanized and necropsied. Selected organs were weighed and tissue samples collected and processed for microscopic examination.

[2] = Dose titration laboratory study (10 days): food consumption and bodyweight; type: in vivo; conditions: cats
Protocol: (§2) This study defined a capromorelin oral solution dose regime that provides increased food intake and weight gain and the accompanying desired profile of IGF-1 serum levels. Laboratory adult cats were housed individually and divided into five groups (3/sex/group; n=6/group). Cats were dosed once daily for 10 consecutive days with either placebo, 1 mg/kg AT-002, 2 mg/kg AT-002, 3 mg/kg AT-002 or 4 mg/kg AT-002. The test article was a flavored solution formulation very similar to the final formulation. Study activities are summarized at Table 5.
The percent change in food consumption from baseline (average of Day −3, Day −2, and Day −1) compared to the treatment period (average of Day 1 through Day 10) was calculated for each cat, and is summarized at Table 6. The mean percent change from baseline to the treatment period for the placebo group increased 13.0%.
The percent change in bodyweight from Day −1 compared to Day 10 was calculated for each cat, and is summarized at table 7. The mean percent change for the placebo group was −0.35%, indicating a decrease in weight. […] The 4 mg/kg AT-002 group approached statistical significance (p=0.0502)

IGF-1 [3] = assay: Laboratory cats modelling CKD safety pilot study: IGF-1 levels; type: in vivo; conditions: cats with compromised kidney function, 2 mg/kg subcutaneous injection for 14 days
Protocol: Sixteen cats with compromised kidney function were enrolled in the study and randomized to three groups. Animals assigned to Group 1 (n=6) were administered AT-002 once on Day 0 by intravenous catheter at a dose rate of 0.75 mg/kg per cat. Animals assigned to Group 2 (n=6) were administered the AT-002 daily for 14 days by subcutaneous injection at a dose rate of 2 mg/kg. Subcutaneous and intravenous treatment routes were used to assure that sufficient drug exposure occurred. Animals assigned to Group 3 (n=4) served as untreated controls.
Blood samples were collected for capromorelin and/or IGF-1 analysis from animals assigned to Group 1 on Study Day 0. Blood samples were also collected from animals assigned to Groups 2 and 3 on Study Days −1 and 13 (prior to dosing) for hematology and clinical chemistry analysis. Appetite was assessed by food intake and weight gain. Bodyweight measurements were performed on Days −7, −1 (all groups) and on Day 13 (Groups 2 and 3 only). Food intake was monitored from Day −7 to Day 13 inclusive for animals assigned to Groups 2 and 3. Animals were observed daily for clinical signs.

[4] = Cat dose titration laboratory study (21 days): food consumption and bodyweight; type: in vivo; conditions: cats; for Mean % Change (±SD) in Food Consumption Over 21 Days: Day 1-21 vs Days -3 to -1, listed as AT-002, L-tartrate; for Mean % Change (±SD) in Bodyweight Over 21 Days: Day 1 to Day 22
Protocol: This study tested the effectiveness of an oral formulation of AT-002 in laboratory cats and to select a dose that would cause increased food intake and weight gain. This study investigated the effects of a capromorelin oral solution in cats dosed at 1 mg/kg, 2 mg/kg or 3 mg/kg compared to placebo (n=8/group) for 21 days. Food consumption was measured each day from Day −10 through Day 21. For each cat, baseline food consumption was calculated as the average of Days −3, −2 and −1. The percent change from baseline to treatment period was calculated as 100× (treatment period minus baseline)/baseline. Bodyweight was measured on Day 1, Day 8, Day 15 and Day 22. Baseline bodyweight was defined as the value collected on Day 1 (prior to treatment).

GH [5] = assay: One-year dog safety study: GH plasma levels; type: in vivo, Beagle dogs; conditions: dogs, Days 1, 170 and 351 following treatment
Protocol: as §1

[6] = Dose titration laboratory study (10 days): capromorelin serum levels; type: in vivo; conditions: cats
Protocol: as §2

GH [7] = assay: 91-day cat safety study: serum GH; type: in vivo; conditions: cats, 6 mg/kg, compared to placebo controls; attenuated through Days 30, 59, 91
Protocol: This controlled study included two treatment groups with 4 adult cats receiving placebo (Group 1) and 8 adult cats receiving capromorelin (Formulation #9, as described above) (Group 2) for 91 consecutive days. All cats were offered food daily for a 6-hour period following an 11-day acclimation phase. All cats were weighed on Days −11, −1, 1, 14, 30, 59, 75, and 91. On Days 1 through 91, animals were orally administered capromorelin once daily via syringe at dose levels of 0 or 6 mg/kg. At one hour post-dose, all cats were offered food for a 6-hour period. Variables of interest included weight gain/loss, food consumption, clinical pathology, and serum analysis of IGF-1 and GH.
On Days 1, 30, 59, and 91, blood samples were collected prior to daily dose administration and at 8 hours post-dose and processed to serum for analysis of IGF-1 and GH levels. […] Serum chemistry parameters measured included albumin (ALB), creatine kinase (CK), albumin/globulin ratio (A\G), globulin (GLOB), alkaline phosphatase (ALP), glucose (GLU), fructosamine, alanine aminotransferase (ALT), blood urea nitrogen (BUN), phosphorus (PHOS), calcium (Ca), potassium (K), chloride (Cl), sodium (Na), cholesterol (CHOL), total protein (TP), creatinine (CRE), total bilirubin (TBIL), BUN/creatinine ratio, and sodium/potassium ratio.

For `CN1N=C2CCN(C(=O)[C@@H](COCc3ccccc3)NC(=O)C(C)(C)N)C[C@@]2(Cc2ccccc2)C1=O.O=C(O)C(O)C(O)C(=O)O` [capromorelin, N-[(2R)-1-[(3aR)-2-methyl-3-oxo-3a-(phenylmethyl)-6,7-dihydro-4H-pyrazolo[4,3-c]pyridin-5-yl]-1-oxo-3-(phenylmethoxy)propan-2-yl]-2-amino-2-methylpropanamide L-tartrate], the IGF-1 plasma levels (IGF-1 [1]) was “increased”, the “Food Consumption, Percent Change From Baseline” value ([2]; 1 mg/kg SID, Day 1-10 vs Days -3 to -1) was 30.54% and the “Bodyweight, Percent Change From Baseline” value ([2]; 1 mg/kg SID, Day -1 to Day 10) was 3.07%. For the same molecule, the “Food Consumption, Percent Change From Baseline” value ([2]; 2 mg/kg SID, Day 1-10 vs Days -3 to -1) was 45.53%, the “Bodyweight, Percent Change From Baseline” value ([2]; 2 mg/kg SID, Day -1 to Day 10) was 3.66% and the “Food Consumption, Percent Change From Baseline” value ([2]; 3 mg/kg SID, Day 1-10 vs Days -3 to -1) was 54.04%. For the same molecule, the “Bodyweight, Percent Change From Baseline” value ([2]; 3 mg/kg SID, Day -1 to Day 10) was 5.72%, the “Food Consumption, Percent Change From Baseline” value ([2]; 4 mg/kg SID, minus 5F1, Day 1-10 vs Days -3 to -1) was 78.82% and the “Bodyweight, Percent Change From Baseline” value ([2]; 4 mg/kg SID, minus 5F1, Day -1 to Day 10) was 3.57%. For the same molecule, the IGF-1 levels (IGF-1 [3]) was “sustained increase”, the “Mean % Change (±SD) in Food Consumption Over 21 Days” value ([4]; 1 mg/kg, 1 mg/kg) was 25.3% and 25.32 ± 16.70% and the “Mean % Change (±SD) in Bodyweight Over 21 Days” value ([4]; 1 mg/kg) was 5.41 ± 4.11%. For the same molecule, the “Mean % Change (±SD) in Food Consumption Over 21 Days” value ([4]; 2 mg/kg, 2 mg/kg) was 45.7% and 45.67 ± 24.39%, the “Mean % Change (±SD) in Bodyweight Over 21 Days” value ([4]; 2 mg/kg) was 6.61 ± 5.05% and the “Mean % Change (±SD) in Food Consumption Over 21 Days” value ([4]; 3 mg/kg, 3 mg/kg) was 29.6% and 29.59 ± 13.65%. The “Mean % Change (±SD) in Bodyweight Over 21 Days” value ([4]; 3 mg/kg) was 3.92 ± 5.15%, the GH plasma levels (GH [5]) was “increased modestly” and the “capromorelin accumulation in serum” value ([6]; 10 days once daily) was “no evidence of capromorelin accumulation”. The “capromorelin serum concentrations by 8 hours post-dose” value ([6]; all AT-002 treated groups) was “very low levels”, the absorption ([6]; oral flavored solution) was “well absorbed” and the “time of maximum serum concentrations” value ([6]; oral solution 1-4 mg/kg, post-dose) was no more than 30 min. The GH following treatment (GH [7]) was “increased”.

Source: patent US10064909B2, “Compositions and methods for chronic use of a weight-gaining compound” (priority 2015, dated 2018)
